Experimental data reported in patent publication US20070249673A1, “Method for administering tolperisone” (priority 2006, published 2007).

How the values were obtained:
[1] = Pharmacokinetic profile of tolperisone after single and multi-dosing (150 mg regimen over 7 days) in healthy subjects under fasted and fed conditions; conditions: for AUC(0-t) / AUC(inf) / Cmax / t½ / λz / AUC(0-6): mean ± SD; for Tmax: median
Experimental: Dosing Regimen: Subjects in each cohort received tolperisone according to the following regimen.
Blood samples for the measurement of the plasma concentrations of tolperisone and metabolites M1 (4-hydroxymethyltolperisone) and M4 (4-carboxy-tolperisone) were collected at the times shown in Table 8.
Bioanalytical: Plasma concentrations of tolperisone and metabolites M1 and M4 were measured using a validated LC/MS/MS assay by Pharm-analyt Laboratory, Baden Austria. The limits of quantitation (LOQ) for tolperisone, Mi, and M4 in plasma were 0.2 ng/ML, and 0.01 μg/mL, respectively.
Pharmacokinetic Analyses: Pharmacokinetic parameters for tolperisone, M1, and M4 were calculated using non-compartmental analysis. Only plasma concentrations greater than or equal to the LOQ for the respective assay were used in the pharmacokinetic analyses. Actual blood sampling times were used in all pharmacokinetic analyses. […] All pharmacokinetic calculations were done using SAS® for Windows® Version 9.1.3.
The maximum plasma concentration (Cmax) and time to Cmax (Tmax) were taken directly from the data. The elimination rate constant, λz, was calculated as the negative of the slope of the terminal log-linear segment of the plasma concentration-time curve. The range of data to be used for each subject and treatment was determined by visual inspection of a semi-logarithmic plot of concentration versus time. Elimination half-life (t½) was calculated according to the following equation: [formula] Area under the curve to the final sample with a concentration greater than or equal to the LOQ [(AUC(0-t)] was calculated using the linear trapezoidal method and extrapolated to infinity [AUC(inf)] using: [formula] where Ctf is the final concentration≧LOQ.
The maximum plasma concentration (Cmax) and time to Cmax (Tmax) were taken directly from the data.
The maximum plasma concentration (Cmax) and time to Cmax (Tmax) were taken directly from the data. The elimination rate constant, λz, and half-life, t½, were calculated as described for the 0800 dose on Day 1 (above). Areas under the curve to the final sample with a concentration greater than or equal to the LOQ [(AUC(O-t)] and over the 6-hour dosing interval [AUC(0-6)] were calculated using the linear trapezoidal method.

[2] = Food effect of tolperisone: open-label, single dose, 4-way crossover pharmacokinetic study in healthy male volunteers; conditions: for AUC0-oo / AUC0-tlast / Cmax / Tmax / t1/2 / λz: 150 mg single oral dose, plasma, mean ± SD
[3] = Day 1 - 0800 Dose, Fasted, Females
[4] = Day 1 - 0800 Dose, Fasted, Males
[5] = Day 1 - 0800 Dose, Fasted, both sexes
[6] = Day 1 - 0800 Dose, Fed, Females
[7] = Day 1 - 0800 Dose, Fed, both sexes
[8] = Day 1, fed vs fasted, both sexes
[9] = Day 2 - 2200 Dose, Fasted, Females
[10] = Day 2 - 2200 Dose, Fasted, Males
[11] = Day 2 - 2200 Dose, Fasted, both sexes
[12] = Day 2 - 2200 Dose, Fed, Females
[13] = Day 2 - 2200 Dose, Fed, both sexes
[14] = Day 7 - 0800 Dose, Fasted, Females
[15] = Day 7 - 0800 Dose, Fasted, Males
[16] = Day 7 - 0800 Dose, Fasted, both sexes
[17] = Day 7 - 0800 Dose, Fed, Females
[18] = Day 7 - 0800 Dose, Fed, both sexes
[19] = Day 7 - 2200 Dose, Fasted, Females
[20] = Day 7 - 2200 Dose, Fasted, Males
[21] = Day 7 - 2200 Dose, Fasted, both sexes
[22] = Day 7 - 2200 Dose, Fed, Females
[23] = Day 7 - 2200 Dose, Fed, both sexes

AUC(0-t) [1, 3]: 3.98 ± 2.48 (3) h · ng/mL
AUC(inf) [1, 3]: 4.10 ± 2.55 (3) h · ng/mL
Cmax [1, 3]: 2.06 ± 1.44 (3) ng/mL
t½ [1, 3]: 1.03 ± 0.090 (3) h
λz [1, 3]: 0.6787 ± 0.0627 (3) h^−1
Tmax [1, 3]: 1.00 (3) h
AUC(0-t) [1, 4]: 3.49 ± 1.47 (7) h · ng/mL
AUC(inf) [1, 4]: 3.60 ± 1.48 (7) h · ng/mL
Cmax [1, 4]: 2.30 ± 1.50 (7) ng/mL
t½ [1, 4]: 1.16 ± 0.18 (7) h
λz [1, 4]: 0.6081 ± 0.0792 (7) h^−1
Tmax [1, 4]: 0.75 (7) h
AUC(0-t) [1, 5]: 3.63 ± 1.69 (10) h · ng/mL
AUC(inf) [1, 5]: 3.75 ± 1.72 (10) h · ng/mL
Cmax [1, 5]: 2.22 ± 1.40 (10) ng/mL
t½ [1, 5]: 1.12 ± 0.17 (10) h
λz [1, 5]: 0.6293 ± 0.0788 (10) h^−1
Tmax [1, 5]: 0.88 (10) h
AUC(0-t) [1, 6]: 8.23 ± 5.46 (4) h · ng/mL
AUC(inf) [1, 6]: 8.64 ± 5.79 (4) h · ng/mL
Cmax [1, 6]: 3.29 ± 2.36 (4) ng/mL
t½ [1, 6]: 1.04 ± 0.12 (4) h
λz [1, 6]: 0.6700 ± 0.0749 (4) h^−1
Tmax [1, 6]: 2.00 (4) h
AUC(0-t) ([1]; Day 1 - 0800 Dose, Fed, Males): 4.22 ± 1.08 (6) h · ng/mL
AUC(inf) ([1]; Day 1 - 0800 Dose, Fed, Males): 4.31 ± 1.12 (6) h · ng/mL
Cmax ([1]; Day 1 - 0800 Dose, Fed, Males): 3.07 ± 0.68 (6) ng/mL
t½ ([1]; Day 1 - 0800 Dose, Fed, Males): 1.03 ± 0.09 (6) h
λz ([1]; Day 1 - 0800 Dose, Fed, Males): 0.6791 ± 0.0554 (6) h^−1
Tmax ([1]; Day 1 - 0800 Dose, Fed, Males): 0.88 (6) h
AUC(0-t) [1, 7]: 5.82 ± 3.86 (10) h · ng/mL
AUC(inf) [1, 7]: 6.05 ± 4.11 (10) h · ng/mL
Cmax [1, 7]: 3.16 ± 1.46 (10) ng/mL
t½ [1, 7]: 1.03 ± 0.10 (10) h
λz [1, 7]: 0.6754 ± 0.0599 (10) h^−1
Tmax [1, 7]: 1.00 (10) h
increase in the mean value for AUC(inf) on administration with food [1, 8]: 61%
increase in the mean value for Cmax on administration with food [1, 8]: 42%
Cmax [1, 9]: 1.83 ± 0.70 (3) ng/mL
Tmax [1, 9]: 0.75 (3) h
Cmax [1, 10]: 1.08 ± 0.68 (7) ng/mL
Tmax [1, 10]: 1.50 (7) h
Cmax [1, 11]: 1.30 ± 0.74 (10) ng/mL
Tmax [1, 11]: 1.25 (10) h
Cmax [1, 12]: 2.23 ± 1.99 (4) ng/mL
Tmax [1, 12]: 1.25 (4) h
Cmax ([1]; Day 2 - 2200 Dose, Fed, Males): 1.24 ± 0.60 (6) ng/mL
Tmax ([1]; Day 2 - 2200 Dose, Fed, Males): 1.00 (6) h
Cmax [1, 13]: 1.64 ± 1.33 (10) ng/mL
Tmax [1, 13]: 1.00 (10) h
mean AUC(0-6) under fed conditions higher than fasted ([1]; Day 7, 0800 dose, both sexes): 12%
mean Cmax under fed conditions lower than fasted ([1]; Day 7, 0800 dose, both sexes): 12%
AUC(0-6) [1, 14]: 5.78 ± 2.18 (3) h · ng/mL
Cmax [1, 14]: 3.79 ± 1.46 (3) ng/mL
t½ [1, 14]: 1.04 ± 0.115 (3) h
λz [1, 14]: 0.6728 ± 0.0705 (3) h^−1
Tmax [1, 14]: 0.75 (3) h
AUC(0-6) [1, 15]: 4.13 ± 2.37 (7) h · ng/mL
Cmax [1, 15]: 2.42 ± 1.62 (7) ng/mL
t½ [1, 15]: 1.23 ± 0.22 (7) h
λz [1, 15]: 0.5766 ± 0.0978 (7) h^−1
Tmax [1, 15]: 0.75 (7) h
AUC(0-6) [1, 16]: 4.63 ± 2.33 (10) h · ng/mL
Cmax [1, 16]: 2.83 ± 1.63 (10) ng/mL
t½ [1, 16]: 1.18 ± 0.21 (10) h
λz [1, 16]: 0.6054 ± 0.0982 (10) h^−1
Tmax [1, 16]: 0.75 (10) h
AUC(0-6) [1, 17]: 7.28 ± 4.43 (4) h · ng/mL
Cmax [1, 17]: 3.67 ± 1.97 (4) ng/mL
t½ [1, 17]: 1.08 ± 0.35 (2) h
λz [1, 17]: 0.6783 ± 0.2222 (2) h^−1
Tmax [1, 17]: 1.13 (4) h
AUC(0-6) ([1]; Day 7 - 0800 Dose, Fed, Males): 3.82 ± 1.23 (6) h · ng/mL
Cmax ([1]; Day 7 - 0800 Dose, Fed, Males): 1.70 ± 0.67 (6) ng/mL
t½ ([1]; Day 7 - 0800 Dose, Fed, Males): 1.08 ± 0.32 (6) h
λz ([1]; Day 7 - 0800 Dose, Fed, Males): 0.6791 ± 0.1380 (6) h^−1
Tmax ([1]; Day 7 - 0800 Dose, Fed, Males): 1.00 (6) h
AUC(0-6) [1, 18]: 5.20 ± 3.25 (10) h · ng/mL
Cmax [1, 18]: 2.49 ± 1.61 (10) ng/mL
t½ [1, 18]: 1.08 ± 0.31 (08) h
λz [1, 18]: 0.6789 ± 0.1437 (08) h^−1
Tmax [1, 18]: 1.00 (10) h
Cmax [1, 19]: 3.43 ± 2.15 (3) ng/mL
Tmax [1, 19]: 1.00 (3) h
Cmax [1, 20]: 1.78 ± 1.23 (7) ng/mL
Tmax [1, 20]: 1.03 (7) h
Cmax [1, 21]: 2.27 ± 1.64 (10) ng/mL
Tmax [1, 21]: 1.00 (10) h
Cmax [1, 22]: 2.35 ± 1.97 (4) ng/mL
Tmax [1, 22]: 1.25 (4) h
Cmax ([1]; Day 7 - 2200 Dose, Fed, Males): 2.09 ± 1.33 (6) ng/mL
Tmax ([1]; Day 7 - 2200 Dose, Fed, Males): 0.88 (6) h
Cmax [1, 23]: 2.20 ± 1.51 (10) ng/mL
Tmax [1, 23]: 1.00 (10) h
accumulation (increase in Cmax over the seven days of dosing) ([1]; seven days of dosing, up to 150 mg three times daily): little or no accumulation
mean elimination half-life ([1]; summary, not dependent on sex, food or duration of dosing): ~1.1 h
AUC0-oo ([2]; fasted state): 1.82 ± 1.09 ng·h/mL
AUC0-tlast ([2]; fasted state): 1.20 ± 1.01 ng·h/mL
Cmax ([2]; fasted state): 1.70 ± 1.66 ng/mL
Tmax ([2]; fasted state): 0.68 h
t1/2 ([2]; fasted state): 33 ± 12.6 min
λz ([2]; fasted state): 1.45 ± 0.51 h⁻¹
AUC0-oo ([2]; fed state (high fat breakfast)): 3.92 ± 2.37 ng·h/mL
AUC0-tlast ([2]; fed state (high fat breakfast)): 2.69 ± 2.18 ng·h/mL
Cmax ([2]; fed state (high fat breakfast)): 2.56 ± 3.04 ng/mL
Tmax ([2]; fed state (high fat breakfast)): 1.40 ± 0.77 h
t1/2 ([2]; fed state (high fat breakfast)): 71.4 ± 48 min
λz ([2]; fed state (high fat breakfast)): 0.95 ± 0.90 h⁻¹
Tmax ([2]; fed state (high fat breakfast), listed as 4-HM-tolperisone): 1.38 h
AUC0-oo, geometric mean for the ratio 150 mg fed/150 mg fasted, point estimate ([2]; Fed/fasted, 150 mg): 1.95
AUC0-tlast, geometric mean for the ratio 150 mg fed/150 mg fasted, point estimate ([2]; Fed/fasted, 150 mg): 2.27
Cmax, geometric mean for the ratio 150 mg fed/150 mg fasted, point estimate ([2]; Fed/fasted, 150 mg): 1.23
concentration in blood plasma eight hours after study drug administration ([2]; all studied doses (150, 300, and 450 mg)): below the limit of quantification
SMILES: CC(CN1CCCCC1)C(=O)c1ccc(CO)cc1 (centres unmarked) [4-HM-Tolperisone, 4-hydroxymethyl-tolperisone]
